Test results taken from patent US12539292B2, “BRM targeting compounds and associated methods of use” (Arvinas Operations, Inc., priority 2018, dated 2026).

Molecular target: T1, BRM (Homo sapiens, UniProt P51531)
T1 construct: In-Cell Western Screen of BRM Degradation in SW1573 Cells; endogenous in cells; host or cells: SW1573
Assay: In-cell Western screen of BRM degradation in SW1573 cells (Dmax and DC50)
Assay type: cell-based
Settings: BRM degradation, SW1573 cells; for DC50: read-out: DC50; for Dmax: tested at the top concentration of between 0.3 and 10 μM, read-out: Dmax (%) (% degraded)
Outline: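 BRM levels were read by LI-COR in-cell Western after two-channel (800/680 nm) immunostaining of fixed, Triton-permeabilised SW1573 cells.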

T1 sequence (P51531 whole entry): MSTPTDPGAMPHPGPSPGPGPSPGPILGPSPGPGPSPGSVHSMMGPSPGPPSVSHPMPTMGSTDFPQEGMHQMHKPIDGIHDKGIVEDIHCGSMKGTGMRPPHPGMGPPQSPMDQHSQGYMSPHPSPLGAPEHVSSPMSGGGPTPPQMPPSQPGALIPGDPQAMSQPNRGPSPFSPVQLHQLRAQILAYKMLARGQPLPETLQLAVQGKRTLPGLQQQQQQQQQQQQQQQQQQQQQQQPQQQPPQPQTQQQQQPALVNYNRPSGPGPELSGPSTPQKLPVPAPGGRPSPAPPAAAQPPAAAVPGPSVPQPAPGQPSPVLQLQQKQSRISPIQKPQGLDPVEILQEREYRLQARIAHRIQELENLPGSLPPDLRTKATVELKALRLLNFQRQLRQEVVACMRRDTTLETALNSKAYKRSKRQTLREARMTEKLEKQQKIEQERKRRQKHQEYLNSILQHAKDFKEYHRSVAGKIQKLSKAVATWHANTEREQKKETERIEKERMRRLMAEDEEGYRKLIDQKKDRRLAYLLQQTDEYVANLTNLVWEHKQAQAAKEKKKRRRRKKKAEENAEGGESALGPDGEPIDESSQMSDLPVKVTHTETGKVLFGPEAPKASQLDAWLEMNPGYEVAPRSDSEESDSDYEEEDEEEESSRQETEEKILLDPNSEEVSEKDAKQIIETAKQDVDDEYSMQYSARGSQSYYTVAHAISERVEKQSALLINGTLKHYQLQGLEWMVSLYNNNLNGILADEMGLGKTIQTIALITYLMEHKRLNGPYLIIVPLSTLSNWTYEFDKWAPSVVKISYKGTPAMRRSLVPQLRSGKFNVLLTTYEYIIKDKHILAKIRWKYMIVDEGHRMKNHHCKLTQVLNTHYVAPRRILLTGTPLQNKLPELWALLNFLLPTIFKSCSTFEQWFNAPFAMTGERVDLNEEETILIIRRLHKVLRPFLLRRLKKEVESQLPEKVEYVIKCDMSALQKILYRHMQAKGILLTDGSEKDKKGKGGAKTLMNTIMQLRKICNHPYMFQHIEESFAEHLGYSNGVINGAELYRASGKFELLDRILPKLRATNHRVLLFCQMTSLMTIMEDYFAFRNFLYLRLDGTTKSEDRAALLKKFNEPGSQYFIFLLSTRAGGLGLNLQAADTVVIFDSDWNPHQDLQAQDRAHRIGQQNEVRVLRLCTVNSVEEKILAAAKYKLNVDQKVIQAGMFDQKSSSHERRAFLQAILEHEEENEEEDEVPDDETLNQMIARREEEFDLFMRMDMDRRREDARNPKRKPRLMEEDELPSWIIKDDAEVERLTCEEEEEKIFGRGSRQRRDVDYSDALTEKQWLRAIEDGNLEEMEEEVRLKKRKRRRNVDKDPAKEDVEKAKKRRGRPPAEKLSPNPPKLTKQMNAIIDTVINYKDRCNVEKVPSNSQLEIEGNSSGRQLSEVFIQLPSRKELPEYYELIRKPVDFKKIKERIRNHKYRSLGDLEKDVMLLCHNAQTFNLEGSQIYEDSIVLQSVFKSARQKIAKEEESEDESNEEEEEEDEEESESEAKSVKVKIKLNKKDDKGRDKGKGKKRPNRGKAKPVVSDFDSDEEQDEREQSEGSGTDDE

Compound | DC50 [nM] | Dmax [%]
CCOC[C@H](NC(=O)[C@@H]1C[C@@H](O)CN1C(=O)[C@H](c1cc(OCCN2CCN(CCOc3cc(N4C5CCC4CN(c4cc(-c6ccccc6O)nnc4N)C5)ccn3)CC2)no1)C(C)C)c1ccc(-c2scnc2C)cc1 [compound 257, (2S,4R)-1-((2S)-2-(3-(2-(4-(2-((4-(3-(3-amino-6-(2-hydroxyphenyl)pyridazin-4-yl)-3,8-diazabicyclo[3.2.1]octan-8-yl)pyridin-2-yl)oxy)ethyl)piperazin-1-yl)ethoxy)isoxazol-5-yl)-3-methylbutanoyl)-N-((R)-2-ethoxy-1-(4-(4-methylthiazol-5-yl)phenyl)ethyl)-4-hydroxypyrrolidine-2-carboxamide] | 2.5 to 10 | > 75
Cc1ncsc1-c1ccc([C@@H](NC(=O)[C@@H]2C[C@@H](O)CN2C(=O)[C@H](c2cc(OCCN3CCN(CCOc4cc(N5C6CCC5CN(c5cc(-c7ccccc7O)nnc5N)C6)ccn4)CC3)no2)C(C)C)C(=O)N(C)c2ccccc2)cc1 [compound 258, (2S,4R)-1-((2S)-2-(3-(2-(4-(2-((4-(3-(3-amino-6-(2-hydroxyphenyl)pyridazin-4-yl)-3,8-diazabicyclo[3.2.1]octan-8-yl)pyridin-2-yl)oxy)ethyl)piperazin-1-yl)ethoxy)isoxazol-5-yl)-3-methylbutanoyl)-4-hydroxy-N-((R)-2-(methyl(phenyl)amino)-1-(4-(4-methylthiazol-5-yl)phenyl)-2-oxoethyl)pyrrolidine-2-carboxamide] | > 30 | 
Cc1ncsc1-c1ccc([C@@H](NC(=O)[C@@H]2C[C@@H](O)CN2C(=O)[C@@H](c2cc(OCCN3CCN(CCOc4cc(N5C6CCC5CN(c5cc(-c7ccccc7O)nnc5N)C6)ccn4)CC3)no2)C(C)C)C(=O)N(C)c2ccccc2)cc1 [compound 259, (2S,4R)-1-((2R)-2-(3-(2-(4-(2-((4-(3-(3-amino-6-(2-hydroxyphenyl)pyridazin-4-yl)-3,8-diazabicyclo[3.2.1]octan-8-yl)pyridin-2-yl)oxy)ethyl)piperazin-1-yl)ethoxy)isoxazol-5-yl)-3-methylbutanoyl)-4-hydroxy-N-((R)-2-(methyl(phenyl)amino)-1-(4-(4-methylthiazol-5-yl)phenyl)-2-oxoethyl)pyrrolidine-2-carboxamide] | < 2.5 | > 75
Cc1ncsc1-c1ccc([C@H](C)NC(=O)[C@@H]2C[C@@H](O)CN2C(=O)[C@H](c2cc(OCCC3CCN(C(=O)[C@H]4C[C@H](Oc5cc(N6C7CCC6CN(c6cc(-c8ccccc8O)nnc6N)C7)ccn5)C4)CC3)no2)C(C)C)cn1 [compound 260, (2S,4R)-1-((2S)-2-(3-(2-(1-((1r,3S)-3-((4-(3-(3-amino-6-(2-hydroxyphenyl)pyridazin-4-yl)-3,8-diazabicyclo[3.2.1]octan-8-yl)pyridin-2-yl)oxy)cyclobutane-1-carbonyl)piperidin-4-yl)ethoxy)isoxazol-5-yl)-3-methylbutanoyl)-4-hydroxy-N-((S)-1-(6-(4-methylthiazol-5-yl)pyridin-3-yl)ethyl)pyrrolidine-2-carboxamide] | > 30 | 
Cc1ncsc1-c1ccc([C@H](C)NC(=O)[C@@H]2C[C@@H](O)CN2C(=O)[C@@H](c2cc(OCCC3CCN(C(=O)[C@H]4C[C@H](Oc5cc(N6C7CCC6CN(c6cc(-c8ccccc8O)nnc6N)C7)ccn5)C4)CC3)no2)C(C)C)cn1 [compound 261, (2S,4R)-1-((2R)-2-(3-(2-(1-((1r,3R)-3-((4-(3-(3-amino-6-(2-hydroxyphenyl)pyridazin-4-yl)-3,8-diazabicyclo[3.2.1]octan-8-yl)pyridin-2-yl)oxy)cyclobutane-1-carbonyl)piperidin-4-yl)ethoxy)isoxazol-5-yl)-3-methylbutanoyl)-4-hydroxy-N-((S)-1-(6-(4-methylthiazol-5-yl)pyridin-3-yl)ethyl)pyrrolidine-2-carboxamide] | < 2.5 | > 75
Cc1ncsc1-c1ccc([C@H](COCC2CCOCC2)NC(=O)[C@@H]2C[C@@H](O)CN2C(=O)[C@H](c2cc(OCCN3CCN(CCOc4cc(N5C6CCC5CN(c5cc(-c7ccccc7O)nnc5N)C6)ccn4)CC3)no2)C(C)C)cc1 [compound 262, (2S,4R)-1-((2S)-2-(3-(2-(4-(2-((4-(3-(3-amino-6-(2-hydroxyphenyl)pyridazin-4-yl)-3,8-diazabicyclo[3.2.1]octan-8-yl)pyridin-2-yl)oxy)ethyl)piperazin-1-yl)ethoxy)isoxazol-5-yl)-3-methylbutanoyl)-4-hydroxy-N-((R)-1-(4-(4-methylthiazol-5-yl)phenyl)-2-((tetrahydro-2H-pyran-4-yl)methoxy)ethyl)pyrrolidine-2-carboxamide] | > 30 | 
CC(C)[C@H](C(=O)N1C[C@H](O)C[C@H]1C(=O)N[C@@H](C)c1ccc(-c2ccnn2C)cc1)c1cc(OCCN2CCN(CCOc3cc(N4C5CCC4CN(c4cc(-c6ccccc6O)nnc4N)C5)ccn3)CC2)no1 [compound 263, (2S,4R)-1-((2S)-2-(3-(2-(4-(2-((4-(3-(3-amino-6-(2-hydroxyphenyl)pyridazin-4-yl)-3,8-diazabicyclo[3.2.1]octan-8-yl)pyridin-2-yl)oxy)ethyl)piperazin-1-yl)ethoxy)isoxazol-5-yl)-3-methylbutanoyl)-4-hydroxy-N-((S)-1-(4-(1-methyl-1H-pyrazol-5-yl)phenyl)ethyl)pyrrolidine-2-carboxamide] | 2.5 to 10 | > 75
CC(C)[C@@H](C(=O)N1C[C@H](O)C[C@H]1C(=O)N[C@@H](C)c1ccc(-c2ccnn2C)cc1)c1cc(OCCN2CCN(CCOc3cc(N4C5CCC4CN(c4cc(-c6ccccc6O)nnc4N)C5)ccn3)CC2)no1 [compound 264, (2S,4R)-1-((2R)-2-(3-(2-(4-(2-((4-(3-(3-amino-6-(2-hydroxyphenyl)pyridazin-4-yl)-3,8-diazabicyclo[3.2.1]octan-8-yl)pyridin-2-yl)oxy)ethyl)piperazin-1-yl)ethoxy)isoxazol-5-yl)-3-methylbutanoyl)-4-hydroxy-N-((S)-1-(4-(1-methyl-1H-pyrazol-5-yl)phenyl)ethyl)pyrrolidine-2-carboxamide] | < 2.5 | > 75
Cc1cnsc1-c1ccc([C@H](C)NC(=O)[C@@H]2C[C@@H](O)CN2C(=O)[C@H](c2cc(OCCN3CCN(CCOc4cc(N5C6CCC5CN(c5cc(-c7ccccc7O)nnc5N)C6)ccn4)CC3)no2)C(C)C)cc1 [compound 265, (2S,4R)-1-((2S)-2-(3-(2-(4-(2-((4-(3-(3-amino-6-(2-hydroxyphenyl)pyridazin-4-yl)-3,8-diazabicyclo[3.2.1]octan-8-yl)pyridin-2-yl)oxy)ethyl)piperazin-1-yl)ethoxy)isoxazol-5-yl)-3-methylbutanoyl)-4-hydroxy-N-((S)-1-(4-(4-methylisothiazol-5-yl)phenyl)ethyl)pyrrolidine-2-carboxamide] | > 30 | 
Cc1cnsc1-c1ccc([C@H](C)NC(=O)[C@@H]2C[C@@H](O)CN2C(=O)[C@@H](c2cc(OCCN3CCN(CCOc4cc(N5C6CCC5CN(c5cc(-c7ccccc7O)nnc5N)C6)ccn4)CC3)no2)C(C)C)cc1 [compound 266, (2S,4R)-1-((2R)-2-(3-(2-(4-(2-((4-(3-(3-amino-6-(2-hydroxyphenyl)pyridazin-4-yl)-3,8-diazabicyclo[3.2.1]octan-8-yl)pyridin-2-yl)oxy)ethyl)piperazin-1-yl)ethoxy)isoxazol-5-yl)-3-methylbutanoyl)-4-hydroxy-N-((S)-1-(4-(4-methylisothiazol-5-yl)phenyl)ethyl)pyrrolidine-2-carboxamide] | < 2.5 | > 75
Cc1ncsc1-c1ccc([C@@H](NC(=O)[C@@H]2C[C@@H](O)CN2C(=O)[C@H](c2cc(OCCN3CCC(O[C@H]4C[C@H](Oc5cc(N6C7CCC6CN(c6cc(-c8ccccc8O)nnc6N)C7)ccn5)C4)CC3)no2)C(C)C)C(F)F)cc1 [compound 267, (2S,4R)-1-((2S)-2-(3-(2-(4-((1r,3S)-3-((4-(3-(3-amino-6-(2-hydroxyphenyl)pyridazin-4-yl)-3,8-diazabicyclo[3.2.1]octan-8-yl)pyridin-2-yl)oxy)cyclobutoxy)piperidin-1-yl)ethoxy)isoxazol-5-yl)-3-methylbutanoyl)-N-((R)-2,2-difluoro-1-(4-(4-methylthiazol-5-yl)phenyl)ethyl)-4-hydroxypyrrolidine-2-carboxamide] | 2.5 to 10 | > 75
Cc1ncsc1-c1ccc([C@@H](NC(=O)[C@@H]2C[C@@H](O)CN2C(=O)[C@@H](c2cc(OCCN3CCC(O[C@H]4C[C@H](Oc5cc(N6C7CCC6CN(c6cc(-c8ccccc8O)nnc6N)C7)ccn5)C4)CC3)no2)C(C)C)C(F)F)cc1 [compound 268, (2S,4R)-1-((2R)-2-(3-(2-(4-((1r,3R)-3-((4-(3-(3-amino-6-(2-hydroxyphenyl)pyridazin-4-yl)-3,8-diazabicyclo[3.2.1]octan-8-yl)pyridin-2-yl)oxy)cyclobutoxy)piperidin-1-yl)ethoxy)isoxazol-5-yl)-3-methylbutanoyl)-N-((R)-2,2-difluoro-1-(4-(4-methylthiazol-5-yl)phenyl)ethyl)-4-hydroxypyrrolidine-2-carboxamide] | < 2.5 | > 75
Cc1ncsc1-c1ccc([C@H](C)NC(=O)[C@@H]2C[C@@H](O)CN2C(=O)[C@H](c2onc(OCCN3CCC(O[C@H]4C[C@H](Oc5cc(N6C7CCC6CN(c6cc(-c8ccccc8O)nnc6N)C7)ccn5)C4)CC3)c2F)C(C)C)cn1 [compound 269, (2S,4R)-1-((2S)-2-(3-(2-(4-((1r,3S)-3-((4-(3-(3-amino-6-(2-hydroxyphenyl)pyridazin-4-yl)-3,8-diazabicyclo[3.2.1]octan-8-yl)pyridin-2-yl)oxy)cyclobutoxy)piperidin-1-yl)ethoxy)-4-fluoroisoxazol-5-yl)-3-methylbutanoyl)-4-hydroxy-N-((S)-1-(6-(4-methylthiazol-5-yl)pyridin-3-yl)ethyl)pyrrolidine-2-carboxamide] | > 30 | 
